Results on four molecules are retold here after patent US10676485B2, “Macrocyclic MCL-1 inhibitors and methods of use” (AbbVie Inc., priority 2017, dated 2020).

For experiment [1], the target named is GST-MCL-1 (Homo sapiens (Human), UniProt Q07820). Put plainly: TR-FRET MCL-1 binding assay (competition with probe F-Bak). The method in brief:
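Compounds as 11 three-fold dilutions from 25 μM with GST-MCL-1, F-Bak probe and Tb-anti-His antibody, 2 h at room temperature. TR-FRET at 340 nm excitation, 520/525 nm (F-Bak) and 495/510 nm (Tb) emission. Run without human serum and with 10% HS.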

The subject of experiment [2] is AMO-1 human multiple myeloma tumor cell line. In words: AMO-1 cell viability assay (CellTiter-Glo). It counts as cell-based. To be noted: AMO1, read-out: AMO-1 Viability IC50 (μM), 10% FBS, 24 hours of compound treatment. A general note: ATP-based viability assays read luminescence as a measure of living cells.
Experimental: (§1) In one exemplary set of conditions, NCI-H929 or AMO-1 (ATCC. Manassas, Va.) were plated 4.000 cells per well in 384-well tissue culture plates (Corning. Corning, N.Y.) in a total volume of 25 μL RPMI tissue culture medium supplemented with 10% fetal bovine serum (Sigma-Aldrich, St. Louis, Mo.) and treated with a 3-fold serial dilution of the compounds of interest with a Labcyte Echo from a final concentration of 10 μM to 0.0005 μM. Each concentration was tested in duplicate at least 3 independent times. A luminescent signal proportional to the number of viable cells following 24 hours of compound treatment was determined using the CellTiter-Glo® Luminescent Cell Viability Assay according to the manufacturer's recommendations (Promega Corp., Madison, Wis.). The plates were read in a Perkin Elmer Envision using a Luminescence protocol. To generate dose response curves the data is normalized to percent viability by setting the averages of the staurosporine (10 uM) and DMSO only control wells to 0% and (00)% viability respectively. The IC50 values for the compounds are generated by fitting the normalized data with Accelrys Assay Explorer 3.3 to a sigmoidal curve model using linear regression.
The subject of experiment [3] is NCI-H929 human multiple myeloma tumor cell line. In words: NCI-H929 cell viability assay (CellTiter-Glo). It counts as cell-based. To be noted: NCI-H929, read-out: H929 Viability IC50 (μM), 10% FBS, 24 hours of compound treatment.
Experimental: as §1
Where [4] appears, read: read-out: MCL-1 Binding Ki (nM, 10% HS), in the presence of 10% HS.
The mark [5] stands for this setting: without HS, read-out: MCL-1 Binding Ki.

Each structure is given as a SMILES string. Read-outs that look alike come from different tables or passages of the source.

GST-MCL-1, sequence (Q07820 whole entry): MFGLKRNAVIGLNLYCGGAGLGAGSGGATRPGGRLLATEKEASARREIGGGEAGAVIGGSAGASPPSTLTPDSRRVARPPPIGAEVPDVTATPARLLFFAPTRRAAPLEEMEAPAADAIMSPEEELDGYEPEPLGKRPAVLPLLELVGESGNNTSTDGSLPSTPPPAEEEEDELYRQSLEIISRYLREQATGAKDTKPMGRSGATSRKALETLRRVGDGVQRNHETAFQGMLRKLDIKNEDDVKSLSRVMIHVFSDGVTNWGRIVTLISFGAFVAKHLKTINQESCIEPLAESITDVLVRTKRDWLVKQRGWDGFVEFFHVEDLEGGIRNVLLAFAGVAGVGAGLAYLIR

In the case of `Cc1c(Cl)c2c(Cl)c(C)c1-c1c(-c3ccc(F)cc3)sc3ncnc(c13)O[C@@H](C(=O)O)Cc1cc(ccc1OCc1ccnc(N3CC(COC[C@H]4COCCO4)C3)n1)OC[C@@H](CN1CCN(C)CC1)O2` [Example 12, (7R,16R)-19,23-dichloro-10-({2-[3-({[(2S)-1,4-dioxan-2-yl]methoxy}methyl)azetidin-1-yl]pyrimidin-4-yl}methoxy)-1-(4-fluorophenyl)-20,22-dimethyl-16-[(4-methylpiperazin-1-yl)methyl]-7,8,15,16-tetrahydro-18,21-etheno-9,13-(metheno)-6,14,17-trioxa-2-thia-3,5-diazacyclononadeca[1,2,3-cd]indene-7-carboxylic acid], the inhibitory constant (Ki) (as a rule, a measure of affinity in units of concentration, obtained from inhibition or displacement) came out at 0.61 nM in experiment [1] (setting [4]) and 0.076 nM in experiment [1] (setting [5]). Moreover, the IC50 (as a rule, the concentration that inhibits the measured activity by half) in experiment [2] was found to be 1.04 nM; in experiment [3], 0.00208 µM.
As for `Cc1c(Cl)c2c(Cl)c(C)c1-c1c(-c3ccc(F)cc3)sc3ncnc(c13)O[C@@H](C(=O)O)Cc1cc(ccc1OCc1ccnc(OC[C@@H]3COCCO3)n1)OC[C@@H](CN1CCN(C)CC1)O2` [Example 24, (7R,16R)-19,23-dichloro-10-[(2-{[(2S)-1,4-dioxan-2-yl]methoxy}pyrimidin-4-yl)methoxy]-1-(4-fluorophenyl)-20,22-dimethyl-16-[(4-methylpiperazin-1-yl)methyl]-7,8,15,16-tetrahydro-18,21-etheno-9,13-(metheno)-6,14,17-trioxa-2-thia-3,5-diazacyclononadeca[1,2,3-cd]indene-7-carboxylic acid], the Ki in experiment [1] (setting [4]) was 0.38 nM; in experiment [1] (setting [5]), 0.038 nM. The IC50 in experiment [2] amounted to 0.687 nM; in experiment [3] it was 0.00197 µM.
Regarding `Cc1c(Cl)c2c(Cl)c(C)c1-c1c(-c3ccc(F)cc3)sc3ncnc(c13)O[C@@H](C(=O)O)Cc1cc(ccc1OCc1ccnc([C@H]3CC[C@H](COC[C@@H]4COCCO4)CC3)n1)OC[C@@H](CN1CCN(C)CC1)O2` [Example 49, (7R,16R)-19,23-dichloro-10-({2-[(1S,4r)-4-({[(2R)-1,4-dioxan-2-yl]methoxy}methyl)cyclohexyl]pyrimidin-4-yl}methoxy)-1-(4-fluorophenyl)-20,22-dimethyl-16-[(4-methylpiperazin-1-yl)methyl]-7,8,15,16-tetrahydro-18,21-etheno-13,9-(metheno)-6,14,17-trioxa-2-thia-3,5-diazacyclononadeca[1,2,3-cd]indene-7-carboxylic acid], the Ki was 0.128 nM in experiment [1] (setting [4]) and less than 0.01 nM in experiment [1] (setting [5]). The 50% inhibitory concentration (IC50) in experiment [2] was 0.172 nM; in experiment [3], 0.000314 µM.
`Cc1c(Cl)c2c(Cl)c(C)c1-c1c(-c3ccc(F)cc3)sc3ncnc(c13)O[C@@H](C(=O)O)Cc1cc(ccc1OCc1ccnc(-c3ccc(NC[C@H]4COCCO4)nc3)n1)OC[C@@H](CN1CCN(C)CC1)O2` [Example 36, (7R,16R)-19,23-dichloro-10-({2-[6-({[(2S)-1,4-dioxan-2-yl]methyl}amino)pyridin-3-yl]pyrimidin-4-yl}methoxy)-1-(4-fluorophenyl)-20,22-dimethyl-16-[(4-methylpiperazin-1-yl)methyl]-7,8,15,16-tetrahydro-18,21-etheno-13,9-(metheno)-6,14,17-trioxa-2-thia-3,5-diazacyclononadeca[1,2,3-cd]indene-7-carboxylic acid]: the inhibition constant Ki in experiment [1] (setting [4]) came to 0.05 nM; in experiment [1] (setting [5]) it was 0.001 nM. The figures for the IC50 in experiment [2] and in experiment [3] were 0.0488 nM and 0.000183 µM, respectively.
